According to patent publication US11608332B2, “FGFR4 inhibitor and preparation method and use thereof” (Jiangsu Hansoh Pharmaceutical Group Co., Ltd., priority 2016, dated 2023):

What was measured:
Hep 3B cells = test: Inhibition of Hep 3B cell proliferation (CellTiter-Glo); assay type: cell-based; conditions: Homo sapiens, Hep3B, 72 hours
Protocol: 3. Experiment on the Inhibition of Hep 3B Cell Proliferation
In this experiment, the inhibitory effect of the compounds on Hep 3B cell proliferation was tested by a CellTiter-Glo method, and the half maximal inhibitory concentration (IC50) of the compounds on the activity of cell proliferation was determined.
1) A 96-well cell culture plate was seeded with 50˜100 μL of Hep 3B cell suspension at a density of 1-5×10^4 cells/ml. The culture plate was incubated in an incubator for 16-24 hours (37° C., 5% CO2).
(§1) 2) Different concentrations of the test compound in a gradient dilution were added to the cells in the culture plate. The culture plate was incubated in an incubator for 72 hours (37° C., 5% CO2).
3) 50-100 μL of CellTiter-Glo reagent were added to each well. Then, the culture plate was shaken or left to stand for 5˜30 minutes at room temperature.
(§2) 4) The chemiluminescence signal values of each plate were determined by a microplate reader.
(§3) 5) The inhibition rates were calculated according to the chemiluminescence signal values.
6) The IC50 of the compound was obtained by curve fitting according to the inhibition rates at different concentrations, and the cell activity of the specific example compounds is shown in Table 2.

HuH-7 cells = test: Inhibition of HuH-7 cell proliferation (CellTiter-Glo); assay type: cell-based; conditions: Homo sapiens, 72 hours
Protocol: 4. Experiment on the Inhibition of HuH-7 Cell Proliferation
In this experiment, the inhibitory effect of the compounds on HuH-7 cell proliferation was tested by a CellTiter-Glo method, and the half maximal inhibitory concentration (IC50) of the compounds on the activity of cell proliferation was determined.
1) A 96-well cell culture plate was seeded with 50˜100 μL of HuH-7 cell suspension at a density of 1-5×10^4 cells/ml. The culture plate was incubated in an incubator for 16˜24 hours (37° C., 5% CO2).
as §1
(§4) 3) 50˜100 μL of CellTiter-Glo reagent were added to each well. Then, the culture plate was shaken or left to stand for 5˜30 minutes at room temperature.
as §2, §3
6) The IC50 of the compound was obtained by curve fitting according to the inhibition rates at different concentrations, and the cell activity of the specific Example compounds is shown in Table 2.

SK-HEP-1 cells = test: Inhibition of SK-HEP-1 cell proliferation (CellTiter-Glo); assay type: cell-based; conditions: Homo sapiens, SK-HEP1, 72 hours
Protocol: 5. Experiment on the Inhibition of SK-HEP-1 Cell Proliferation
In this experiment, the inhibitory effect of the compounds on SK-HEP-1 cell proliferation was tested by a CellTiter-Glo method, and the half maximal inhibitory concentration (IC50) of the compounds on the activity of cell proliferation was determined.
1) A 96-well cell culture plate was seeded with 50˜100 μL of SK-HEP-1 cell suspension at a density of 1-5×10^4 cells/ml. The culture plate was incubated in an incubator for 16˜24 hours (37° C., 5% CO2).
as §1, §4, §2, §3
The IC50 of the compound was obtained by curve fitting according to the inhibition rates at different concentrations, and the cell activity of the specific Example compounds is shown in Table 2.

[1] = Pharmacokinetic (PK) analysis in rats; assay type: in vivo, Sprague Dawley (SD) rats; conditions: SD rats, single intragastric administration, 5 mg/kg, plasma; for AUC(0-t): read-out: Area Under Curve AUC0-t; for AUC(0-inf): read-out: Area Under Curve AUC0-∞; for half-life: read-out: Half-Time t1/2 (converted); for Cmax: read-out: Plasma Concentration Cmax
Protocol: 6. Pharmacokinetic (PK) Analysis in Rats
Mode of administration: a single intragastric administration.
Formulation: 0.5% CMC and 1% Tween 80, ultrasonic dissolution.
Sampling points: 0.5, 1, 2, 4, 6, 8 and 24 hours after administration.
1. 1.0 ml of intravenous blood was collected and placed in a K2EDTA test tube.
The blood was centrifuged at room temperature at the speed of 1000˜3000×g for 5˜20 minutes to isolate the plasma, which was then stored at −80° C. 2. 160 μL of acetonitrile were added to 40 μL of plasma sample for precipitation, and then the mixture was centrifuged at the speed of 500˜2000×g for 5˜20 minutes. 3. 100 μL of treated solution were taken, and the concentration of the test compound was analyzed by LC/MS/MS. The LC/MS/MS analytical instrument was AB Sciex API 4000.
Liquid Chromatography Analysis:
Condition of Liquid chromatography: Shimadzu LC-20AD pump
Chromatographic column: phenomenex Gemiu 5 um C18 50×4.6 mm
Mobile phase: Solution A is 0.1% aqueous formic acid solution, and solution B is acetonitrile
Elution time: 0-3.5 minutes, the eluent was as follows:
Mass spectrometry analysis:
Mass spectrometer setup conditions: positive ion electrospray ionization (ESI) mode.

FGFR1 kinase = FGFR1 kinase (Homo sapiens (Human), UniProt P11362); test: Enzymologic experiment of FGFR1 (TR-FRET); assay type: biochemical; conditions: TR-FRET kinase activity
Chain of FGFR1 kinase (P11362 22-822): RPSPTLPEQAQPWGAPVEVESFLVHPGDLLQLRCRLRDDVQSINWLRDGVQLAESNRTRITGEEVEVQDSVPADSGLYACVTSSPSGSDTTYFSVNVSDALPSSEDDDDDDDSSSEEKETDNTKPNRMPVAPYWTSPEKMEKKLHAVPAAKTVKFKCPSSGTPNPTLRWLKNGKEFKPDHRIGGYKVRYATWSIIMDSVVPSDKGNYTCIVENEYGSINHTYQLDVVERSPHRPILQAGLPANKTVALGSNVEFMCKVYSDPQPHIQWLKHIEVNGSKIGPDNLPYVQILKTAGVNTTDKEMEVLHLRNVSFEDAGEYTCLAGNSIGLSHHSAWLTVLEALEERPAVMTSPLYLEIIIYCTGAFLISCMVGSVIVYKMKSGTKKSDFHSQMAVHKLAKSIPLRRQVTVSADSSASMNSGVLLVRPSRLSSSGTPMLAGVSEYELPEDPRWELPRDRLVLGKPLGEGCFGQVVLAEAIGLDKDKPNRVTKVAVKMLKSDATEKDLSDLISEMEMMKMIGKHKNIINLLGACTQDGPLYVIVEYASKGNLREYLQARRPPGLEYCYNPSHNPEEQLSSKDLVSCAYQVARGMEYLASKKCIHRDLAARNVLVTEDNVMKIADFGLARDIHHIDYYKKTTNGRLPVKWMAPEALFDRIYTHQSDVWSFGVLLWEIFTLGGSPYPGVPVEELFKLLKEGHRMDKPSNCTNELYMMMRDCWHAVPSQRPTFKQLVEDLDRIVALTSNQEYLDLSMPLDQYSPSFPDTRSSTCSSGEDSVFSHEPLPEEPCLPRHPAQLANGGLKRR
Protocol: 2. Enzymologic Experiment of FGFR1
In this experiment, the inhibitory effect of the compounds on FGFR1 kinase activity was tested by a fluorescence resonance energy transfer (TR-FRET) method, and the half maximal inhibitory concentration (IC50) of the compounds on the FGFR1 kinase activity was determined.
1) 1˜5 μL of FGFR1 enzymatic solution was added to a 384-well plate, and the final concentration of the enzyme was 0.1˜5 nM.
2) 1˜5 μL of diluted solution in gradient of the compound was added.
3) 1˜5 μL of a substrate mixture containing substrate polypeptide with a final concentration of 5˜50 nM and ATP with a final concentration of 10˜200 μM was added.
4) The mixture was incubated for 0.5-3 hours at room temperature.
5) 10 μL of EDTA and a test solution comprising labeled antibody were added, and the plate was incubated for 1 hour at room temperature.
6) The fluorescence signal values of each plate were determined by a microplate reader at 665 nm.
7) The inhibition rates were calculated according to the fluorescence signal values.
The IC50 of the compound was obtained by curve fitting according to the inhibition rates at different concentrations, and the enzymatic activity of the specific example compounds is shown in Table 1.

For `COCCNc1cc(NC(=O)N2CCCc3cc(CN4CCC(OC)C4=O)c(C=O)nc32)ncc1C#N` (centres unmarked) [Example 44, N-(5-Cyano-4-((2-methoxyethyl)amino)pyridin-2-yl)-7-formyl-6-((3-methoxy-2-carbonylpyrrolidin-1-yl)methyl)-3,4-dihydro-1,8-naphthyridin-1(2H)-carboxamide], which IC50 (Hep 3B cells) is on record?
Its IC50 is 6 nM.

What about the IC50 (HuH-7 cells) of the same compound?
Its IC50 is 6.9 nM.

And the IC50 (SK-HEP-1 cells)?
The IC50 was greater than 10000 nM.

And the Peak Time tmax [1]?
The Peak Time tmax was 2 h.

And the AUC(0-t) ([1]; Sprague-Dawley, rat, po)?
The AUC(0-t) was 9690 ng·h/mL.

And the AUC(0-inf) ([1]; Sprague-Dawley, rat, po)?
Its AUC(0-inf) is 9820 ng·h/mL.

What about the half-life ([1]; Sprague-Dawley, rat, po) of the same compound?
The half-life was 1 h.

What about the Cmax ([1]; Sprague-Dawley, rat, po) of the same compound?
The Cmax was 3010 ng/mL.

With `COC[C@H](C)Nc1cc(NC(=O)N2CCCc3cc(CN4CC[C@H](OC)C4=O)c(C=O)nc32)ncc1C#N` [Example 90, N-(5-Cyano-4-(((S)-1-methoxypropan-2-yl)amino)pyridin-2-yl)-7-formyl-6-(((S)-3-methoxy-2-carbonylpyrrolidin-1-yl)methyl)-3,4-dihydro-1,8-naphthyridin-1(2H)-carboxamide] as the compound, how does the IC50 (FGFR1 kinase) read?
Its IC50 is greater than 10000 nM.

Which results are given for `COCCNc1cc(NC(=O)N2CCCc3cc(CN(C[C@@H]4CCCO4)C(C)=O)c(C=O)nc32)ncc1C#N` [Example 111, (S)—N-(5-Cyano-4-((2-methoxyethyl)amino)pyridin-2-yl)-7-formyl-6-((N-((tetrahydrofuran-2-yl)methyl)acetamido)methyl)-3,4-dihydro-1,8-naphthyridin-1(2H)-carboxamide]?
IC50 (FGFR1 kinase): > 10000 nM; IC50 (Hep 3B cells): 8.3 nM; IC50 (HuH-7 cells): 21.5 nM; IC50 (SK-HEP-1 cells): > 10000 nM

For `CO[C@H]1CCN(c2cc(NC(=O)N3CCCc4cc(CN5CC[C@H](OC)C5=O)c(C=O)nc43)ncc2C#N)C1` [Example 53, N-(5-Cyano-4-((S)-3-methoxypyrrolidin-1-yl)pyridin-2-yl)-7-formyl-6-(((S)-3-methoxy-2-carbonylpyrrolidin-1-yl)methyl)-3,4-dihydro-1,8-naphthyridin-1(2H)-carboxamide], which IC50 (FGFR1 kinase) is on record?
The IC50 was greater than 10000 nM.

What does the source list for `COCCNc1cc(NC(=O)N2CCCc3cc(CN4CC[C@@H](OC)C4=O)c(C=O)nc32)ncc1C#N` [Example 45, (R)—N-(5-Cyano-4-((2-methoxyethyl)amino)pyridin-2-yl)-7-formyl-6-((3-methoxy-2-carbonylpyrrolidin-1-yl)methyl)-3,4-dihydro-1,8-naphthyridin-1(2H)-carboxamide]?
IC50 (Hep 3B cells): 1.9 nM; IC50 (HuH-7 cells): 8.3 nM; IC50 (SK-HEP-1 cells): > 10000 nM; Peak Time tmax [1]: 2 h; AUC(0-t) ([1]; Sprague-Dawley, rat, po): 12100 ng·h/mL; AUC(0-inf) ([1]; Sprague-Dawley, rat, po): 12300 ng·h/mL; half-life ([1]; Sprague-Dawley, rat, po): 1.1 h; Cmax ([1]; Sprague-Dawley, rat, po): 3760 ng/mL

With `COC[C@@H](C)Nc1cc(NC(=O)N2CCCc3cc(CN4CC[C@@H](OC)C4=O)c(C=O)nc32)ncc1C#N` [Example 91, N-(5-cyano-4-(((R)-1-methoxypropan-2-yl)amino)pyridin-2-yl)-7-formyl-6-(((R)-3-methoxy-2-carbonylpyrrolidin-1-yl)methyl)-3,4-dihydro-1,8-naphthyridin-1(2H)-carboxamide] as the compound, how does the IC50 (Hep 3B cells) read?
Its IC50 is 1.5 nM.

What about the IC50 (HuH-7 cells) of the same compound?
Its IC50 is 3.3 nM.

And the IC50 (SK-HEP-1 cells)?
The IC50 was greater than 10000 nM.

And the Peak Time tmax [1]?
The Peak Time tmax was 0.5 h.

What about the AUC(0-t) ([1]; Sprague-Dawley, rat, po) of the same compound?
The AUC(0-t) was 12900 ng·h/mL.

What about the AUC(0-inf) ([1]; Sprague-Dawley, rat, po) of the same compound?
The AUC(0-inf) was 13000 ng·h/mL.

And the half-life ([1]; Sprague-Dawley, rat, po)?
Its half-life is 0.9 h.

And the MRT ([1]; Sprague-Dawley, rat, po, read-out: Mean Residence Time MRT)?
Its MRT is 2.8 h.

And the Cmax ([1]; Sprague-Dawley, rat, po)?
The Cmax was 2790 ng/mL.

For `CN(Cc1cc2c(nc1C=O)N(C(=O)Nc1cc(N[C@@H]3CCOC3)c(C#N)cn1)CCC2)C(=O)[C@H]1CCCO1` [Example 95, N-(5-Cyano-4-(((R)-tetrahydrofuran-3-yl)amino)pyridin-2-yl)-7-formyl-6-(((R)—N-methyltetrahydrofuran-2-carboxamido)methyl)-3,4-dihydro-1,8-naphthyridin-1 (2H)-carboxamide], which IC50 (FGFR1 kinase) is on record?
Its IC50 is greater than 10000 nM.

What about the IC50 (Hep 3B cells) of the same compound?
Its IC50 is 2.8 nM.

And the IC50 (HuH-7 cells)?
The IC50 was 12.9 nM.

And the IC50 (SK-HEP-1 cells)?
The IC50 was greater than 10000 nM.

Which IC50 (FGFR1 kinase) does the source give for `COCCNc1cc(NC(=O)N2CCCc3cc(CN(C)C(=O)[C@H]4CCOC4)c(C=O)nc32)ncc1C#N` [Example 6, (S)—N-(5-Cyano-4-((2-methoxyethyl)amino)pyridin-2-yl)-7-formyl-6-((N-methyltetrahydrofuran-3-carboxamido)methyl)-3,4-dihydro-1,8-naphthyridin-1(2H)-carb oxamide] here?
The IC50 was greater than 10000 nM.

And the IC50 (Hep 3B cells)?
Its IC50 is 2.7 nM.

And the IC50 (HuH-7 cells)?
Its IC50 is 9.7 nM.

And the IC50 (SK-HEP-1 cells)?
The IC50 was greater than 10000 nM.

For `COCCNc1cc(NC(=O)N2CCCc3cc(CN(C=O)[C@H]4CCOC4)c(C=O)nc32)ncc1C#N` [Example 114, (S)—N-(5-Cyano-4-((2-methoxyethyl)amino)pyridin-2-yl)-7-formyl-6-((N-(tetrahydrofuran-3-yl)formylamino)methyl)-3,4-dihydro-1,8-naphthyridin-1(2H)-carboxamide], which IC50 (Hep 3B cells) is on record?
The IC50 was 8.6 nM.

What about the IC50 (HuH-7 cells) of the same compound?
The IC50 was 26.7 nM.

And the IC50 (SK-HEP-1 cells)?
Its IC50 is greater than 10000 nM.

With `COCC(=O)N(C)Cc1cc2c(nc1C=O)N(C(=O)Nc1cc(N3CC[C@H](OC)C3)c(C#N)cn1)CCC2` [Example 106, (S)—N-(5-Cyano-4-(3-methoxypyrrolidin-1-yl)pyridin-2-yl)-7-formyl-6-((2-methoxy-N-methylacetamido)methyl)-3,4-dihydro-1,8-naphthyridin-1(2H)-carboxamide] as the compound, how does the IC50 (FGFR1 kinase) read?
The IC50 was greater than 10000 nM.

And the IC50 (Hep 3B cells)?
Its IC50 is 5.8 nM.

What about the IC50 (HuH-7 cells) of the same compound?
Its IC50 is 21.1 nM.

What about the IC50 (SK-HEP-1 cells) of the same compound?
The IC50 was greater than 10000 nM.

For `COCCNc1cc(NC(=O)N2CCCc3cc(CN(C=O)C[C@H]4CCCO4)c(C=O)nc32)ncc1C#N` [Example 110, (R)—N-(5-Cyano-4-((2-methoxyethyl)amino)pyridin-2-yl)-7-formyl-6-((N-((tetrahydrofuran-2-yl)methyl)formylamino)methyl)-3,4-dihydro-1,8-naphthyridin-1(2H)-carboxamide], which IC50 (Hep 3B cells) is on record?
The IC50 was 8.3 nM.

What about the IC50 (HuH-7 cells) of the same compound?
Its IC50 is 28.5 nM.

And the IC50 (SK-HEP-1 cells)?
Its IC50 is greater than 10000 nM.

For `COC[C@H](C)Nc1cc(NC(=O)N2CCCc3cc(CN(C)C(=O)[C@H]4CCCO4)c(C=O)nc32)ncc1C#N` [Example 92, N-(5-Cyano-4-(((S)-1-methoxypropan-2-yl)amino)pyridin-2-yl)-7-formyl-6-(((R)—N-methyltetrahydrofuran-2-carboxamido)methyl)-3,4-dihydro-1,8-naphthyridin-1(2H)-carboxamide], which IC50 (FGFR1 kinase) is on record?
The IC50 was greater than 10000 nM.
